Source: patent US5607937A, “Piperazides of substituted phenylalanine derivatives as thrombin inhibitors” (priority 1993, dated 1997)

Key:
[1] = target: factor Xa (Bos taurus, UniProt P00743); experiment: inhibition of factor Xa, dissociation constant Ki; assay type: biochemical; settings: Table 1
Experimental: (§1) The biological activity of the compounds of the present invention was determined in vitro as well as in vivo.

[2] = plasma concentration in rats after intravenous administration; assay type: in vivo; settings: rat
Experimental: (§2) A physiological NaCl solution of the substance to be tested was submitted to high pressure liquid chromatography (HPLC) in order to determine its characteristic substance-specific retention time with the chosen test conditions.
(§3) The substance to be tested was diluted in vitro in rat plasma. This solution was also submitted to HPLC to see whether the characteristic peak of the substance once again appeared at the substance-specific retention time.
(§4) Blood samples were taken at time intervals of 15 minutes, from which plasma samples were prepared by centrifugation; those samples were also submitted to HPLC to see whether the characteristic peak of the substance appeared again at the substance-specific retention time.
(§5) After administration, blood samples were taken from the test animals at time intervals from 2 to maximally 360 minutes and the blood level of the compounds to be tested was determined by HPLC.

[3] = plasma concentration in rats after oral administration; assay type: in vivo; settings: rat
Experimental: as §2, §3, §4, §5

[4] = plasma concentration in rats after rectal administration; assay type: in vivo; settings: rat
[5] = in vivo; settings: plasma, rat, intraduodenal 100 mg/kg
[6] = system: coagulation in rat plasma; experiment: aPTT in rat plasma after rectal application; assay type: in vivo
Experimental: After rectal administration of the compounds to be tested, the anticoagulant effect was determined in the plasma of experimental animals.

[7] = concentration in rat plasma in the anticoagulant study after rectal application; assay type: in vivo; settings: for concentration at 0.5 h / concentration at 1 h / concentration at 2 h / concentration at 3 h: plasma; for concentration at 0.5 h: 30 min; for concentration at 1 h: 60 min; for concentration at 2 h: 120 min; for concentration at 3 h: 180 min; for Concentration in plasma: 0 min
[8] = plasma level in the stasis-induced thrombosis study, rectal application; assay type: in vivo; settings: rat; for concentration at 0.5 h: 30 min; for concentration at 1 h: 60 min
Experimental: The antithrombotic activity of the compounds was determined in the rat on the model of the stasis-induced thrombosis according to Wessler et al. (J. Appl. Physiol. 14, 943-946, 1959). The thrombus was induced by serum 30 min after application of the inhibitor and macroscopically evaluated after 10 further min.
After rectal application, the compounds of the present invention are absorbed to an extent leading to antithrombotically active plasma levels. This has been shown with the model of the stasis-induced venous thrombosis in the rat according to Wessler et al. This method consisted in macroscopically evaluating thrombi induced by serum in jugular vein segments by means of a scale (0=liquid blood, 1=one or several small thrombi, 2=not fully closed vascular segment, 3=fully closed vascular segment). The antithrombotic effect is clearly dose-dependent.

[9] = target: thrombin (Bos taurus, UniProt P00735)
[10] = system: coagulation in human plasma; experiment: thrombin time (TT) in human plasma
[11] = target: tPA (Homo sapiens, UniProt P00750); experiment: inhibition of tPA, dissociation constant Ki
[12] = system: coagulation in human plasma; experiment: prothrombin time (PT, Quick value) in human plasma
[13] = target: T1, factor XIIa (Homo sapiens, UniProt P00748); experiment: inhibition of factor XIIa, dissociation constant Ki
T1 sequence (P00748 373-615 limits assumed): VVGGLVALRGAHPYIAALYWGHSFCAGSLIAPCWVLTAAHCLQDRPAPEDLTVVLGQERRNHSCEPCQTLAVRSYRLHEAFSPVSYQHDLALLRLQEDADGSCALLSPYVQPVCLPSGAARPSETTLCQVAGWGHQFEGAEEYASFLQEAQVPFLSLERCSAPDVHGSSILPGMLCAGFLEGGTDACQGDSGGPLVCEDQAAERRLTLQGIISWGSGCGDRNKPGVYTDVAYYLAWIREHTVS

[14] = target: plasma kallikrein (Homo sapiens, UniProt P03952); experiment: inhibition of plasma kallikrein, dissociation constant Ki
[15] = target: glandular kallikrein (Sus scrofa, UniProt P00752); experiment: inhibition of glandular kallikrein, dissociation constant Ki
[16] = system: coagulation in human plasma; experiment: activated partial thromboplastin time (aPTT) in human plasma
[17] = target: T2, trypsin (Bos taurus, UniProt P00760); experiment: inhibition of trypsin, dissociation constant Ki; assay type: biochemical; parameters: thrombin and the related enzymes trypsin, plasmin, factor Xa, factor XIIa
T2 sequence (P00760 24-246): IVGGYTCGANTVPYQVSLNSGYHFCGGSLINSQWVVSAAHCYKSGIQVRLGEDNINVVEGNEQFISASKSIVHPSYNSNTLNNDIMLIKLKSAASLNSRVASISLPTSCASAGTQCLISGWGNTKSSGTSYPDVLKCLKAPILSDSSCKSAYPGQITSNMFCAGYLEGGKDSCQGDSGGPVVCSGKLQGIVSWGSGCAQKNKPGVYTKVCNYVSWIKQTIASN
Experimental: as §1

Sequence of factor Xa (P00743 234-492 limits assumed): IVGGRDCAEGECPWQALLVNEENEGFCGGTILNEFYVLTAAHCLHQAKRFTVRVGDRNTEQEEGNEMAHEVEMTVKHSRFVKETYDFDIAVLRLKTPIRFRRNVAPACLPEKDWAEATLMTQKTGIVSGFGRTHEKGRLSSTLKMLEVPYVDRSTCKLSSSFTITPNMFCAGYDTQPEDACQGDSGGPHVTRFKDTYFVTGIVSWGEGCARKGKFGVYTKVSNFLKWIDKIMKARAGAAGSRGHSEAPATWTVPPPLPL
Sequence of factor Xa (P00743 41-180 partner limits assumed): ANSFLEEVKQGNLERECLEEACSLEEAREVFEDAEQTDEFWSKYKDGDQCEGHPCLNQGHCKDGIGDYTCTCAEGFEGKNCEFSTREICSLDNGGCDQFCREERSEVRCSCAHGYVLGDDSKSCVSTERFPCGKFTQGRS
Sequence of tPA (P00750 36-562): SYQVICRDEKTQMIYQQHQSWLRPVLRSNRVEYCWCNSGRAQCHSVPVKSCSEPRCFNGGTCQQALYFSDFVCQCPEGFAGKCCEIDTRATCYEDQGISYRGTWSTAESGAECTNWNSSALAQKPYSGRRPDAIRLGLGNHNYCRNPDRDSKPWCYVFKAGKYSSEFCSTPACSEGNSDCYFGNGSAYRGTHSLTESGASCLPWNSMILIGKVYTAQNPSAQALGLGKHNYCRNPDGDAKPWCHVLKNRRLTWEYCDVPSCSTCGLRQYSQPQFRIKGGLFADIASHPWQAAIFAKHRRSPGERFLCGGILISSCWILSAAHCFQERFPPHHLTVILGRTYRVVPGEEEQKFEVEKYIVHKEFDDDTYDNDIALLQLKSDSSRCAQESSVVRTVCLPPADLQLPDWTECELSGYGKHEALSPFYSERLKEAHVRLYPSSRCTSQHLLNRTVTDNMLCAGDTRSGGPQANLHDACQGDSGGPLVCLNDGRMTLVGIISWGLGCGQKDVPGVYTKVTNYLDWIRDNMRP
Sequence of plasma kallikrein (P03952 391-638 limits assumed, species assumed): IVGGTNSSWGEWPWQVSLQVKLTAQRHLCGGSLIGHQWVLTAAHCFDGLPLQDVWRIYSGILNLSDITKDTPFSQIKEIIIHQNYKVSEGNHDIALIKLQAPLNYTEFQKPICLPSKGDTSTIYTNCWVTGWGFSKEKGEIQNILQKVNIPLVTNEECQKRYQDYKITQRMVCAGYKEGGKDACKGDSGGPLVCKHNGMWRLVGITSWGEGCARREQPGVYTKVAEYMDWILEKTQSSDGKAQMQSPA
Sequence of plasma kallikrein (P03952 20-390 partner limits assumed, species assumed): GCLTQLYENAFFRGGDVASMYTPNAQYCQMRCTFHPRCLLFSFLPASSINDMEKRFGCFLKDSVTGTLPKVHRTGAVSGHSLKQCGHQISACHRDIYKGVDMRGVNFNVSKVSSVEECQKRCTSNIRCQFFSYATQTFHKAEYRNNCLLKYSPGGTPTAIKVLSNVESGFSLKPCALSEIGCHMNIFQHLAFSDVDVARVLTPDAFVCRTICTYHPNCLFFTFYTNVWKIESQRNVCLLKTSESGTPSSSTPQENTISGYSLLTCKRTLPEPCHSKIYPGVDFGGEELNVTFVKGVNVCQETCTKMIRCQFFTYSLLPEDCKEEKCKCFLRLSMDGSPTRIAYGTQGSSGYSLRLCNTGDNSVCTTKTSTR
Sequence of glandular kallikrein (P00752 8-246): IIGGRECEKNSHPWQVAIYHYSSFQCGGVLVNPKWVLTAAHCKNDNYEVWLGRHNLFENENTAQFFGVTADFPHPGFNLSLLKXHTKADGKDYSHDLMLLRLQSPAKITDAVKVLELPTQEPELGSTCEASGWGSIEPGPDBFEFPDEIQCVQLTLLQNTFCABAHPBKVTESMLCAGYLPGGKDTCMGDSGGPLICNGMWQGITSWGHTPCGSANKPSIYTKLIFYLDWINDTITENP

Q: Which results are given for `CC(=O)N1CCN(C(=O)[C@H](Cc2cccc(C(=N)N)c2)NS(=O)(=O)c2ccc3ccccc3c2)CC1.Cl` [Compound 2, Nα-(2-naphthylsulfonyl)-(L)-3-amidinophenylalanine-4-acetylpiperazide hydrochloride]?
A: Ki [1]: 35 µM; concentration at 5 min ([2]; plasma, iv, i.v. 1 mg/kg, 5 min): 780 ng/mL; concentration at 0.25 h ([2]; plasma, iv, i.v. 1 mg/kg, 15 min): 224 ng/mL; concentration at 0.5 h ([2]; plasma, iv, i.v. 1 mg/kg, 30 min): 95 ng/mL; concentration at 1 h ([2]; plasma, iv, i.v. 1 mg/kg, 60 min): 38 ng/mL; concentration at 2 h ([2]; plasma, iv, i.v. 1 mg/kg, 120 min): 12 ng/mL; concentration at 3 h ([2]; plasma, iv, i.v. 1 mg/kg, 180 min): 10 ng/mL; elimination in words ([2]; i.v.): eliminated at comparable rate; concentration at 0.5 h ([3]; plasma, oral 50 mg/kg, 30 min): 1200 ng/mL; concentration at 1 h ([3]; plasma, oral 50 mg/kg, 60 min): 873 ng/mL; concentration at 2 h ([3]; plasma, oral 50 mg/kg, 120 min): 333 ng/mL; concentration at 3 h ([3]; plasma, oral 50 mg/kg, 180 min): 124 ng/mL; concentration at 4 h ([3]; plasma, oral 50 mg/kg, 240 min): 44 ng/mL; concentration at 5 h ([3]; plasma, oral 50 mg/kg, 300 min): 46 ng/mL; resorption in words ([3]; oral): only slightly resorbed; concentration at 0.5 h ([4]; plasma, rectal 100 mg/kg, 30 min): 32400 ng/mL; concentration at 1 h ([4]; plasma, rectal 100 mg/kg, 60 min): 23100 ng/mL; concentration at 2 h ([4]; plasma, rectal 100 mg/kg, 120 min): 5300 ng/mL; concentration at 3 h ([4]; plasma, rectal 100 mg/kg, 180 min): 2700 ng/mL; concentration at 4 h ([4]; plasma, rectal 100 mg/kg, 240 min): 1260 ng/mL; concentration at 5 h ([4]; plasma, rectal 100 mg/kg, 300 min): 810 ng/mL; concentration at 6 h ([4]; plasma, rectal 100 mg/kg, 360 min): 508 ng/mL; detectable in plasma after rectal administration ([4]; rectal): ≥ 6 h; detection/blood levels in words ([4]; rectal): absorbed by the intestine in particular after rectal administration to rats; concentration at 0.5 h ([5]; 30 min): 21700 ng/mL; concentration at 1 h ([5]; 60 min): 15200 ng/mL; concentration at 2 h ([5]; 120 min): 4280 ng/mL; concentration at 3 h ([5]; 180 min): 2600 ng/mL; concentration at 4 h ([5]; 240 min): 2180 ng/mL; concentration at 5 h ([5]; 300 min): 2200 ng/mL; concentration at 6 h ([5]; 360 min): 2850 ng/mL; Clotting time, aPTT ([6]; rectal 5 mg/kg, 0 min): 22.5 s; Clotting time, aPTT ([6]; rectal 5 mg/kg, 30 min): 37 s; Clotting time, aPTT ([6]; rectal 5 mg/kg, 60 min): 33 s; Clotting time, aPTT ([6]; rectal 5 mg/kg, 120 min): 30 s; Clotting time, aPTT ([6]; rectal 5 mg/kg, 180 min): 26.4 s; Clotting time, aPTT ([6]; rectal 20 mg/kg, 0 min): 28 s; Clotting time, aPTT ([6]; rectal 20 mg/kg, 30 min): 120 s; Clotting time, aPTT ([6]; rectal 20 mg/kg, 60 min): 87 s; Clotting time, aPTT ([6]; rectal 20 mg/kg, 120 min): 59 s; Clotting time, aPTT ([6]; rectal 20 mg/kg, 180 min): 50 s; concentration at 0.5 h ([7]; rectal 5 mg/kg): 296 ng/mL; concentration at 1 h ([7]; rectal 5 mg/kg): 160 ng/mL; concentration at 2 h ([7]; rectal 5 mg/kg): 60 ng/mL; concentration at 3 h ([7]; rectal 5 mg/kg): 40 ng/mL; concentration at 0.5 h ([7]; rectal 20 mg/kg): 5440 ng/mL; concentration at 1 h ([7]; rectal 20 mg/kg): 2090 ng/mL; concentration at 2 h ([7]; rectal 20 mg/kg): 812 ng/mL; concentration at 3 h ([7]; rectal 20 mg/kg): 660 ng/mL; Concentration in plasma ([7]; rectal 5 mg/kg): 0 ng/mL; Concentration in plasma ([7]; rectal 20 mg/kg): 0 ng/mL; concentration at 0.5 h ([8]; rectal 5 mg/kg): 228 ng/mL; concentration at 1 h ([8]; rectal 5 mg/kg): 160 ng/mL; concentration at 0.5 h ([8]; rectal 20 mg/kg): 1620 ng/mL; concentration at 1 h ([8]; rectal 20 mg/kg): 998 ng/mL; concentration at 0.5 h ([8]; rectal 100 mg/kg): 28700 ng/mL; concentration at 1 h ([8]; rectal 100 mg/kg): 16100 ng/mL; thrombin inhibition in words [9]: potent thrombin inhibitor; Concentr. to double the Thrombin time [10]: 0.055 µmol/L; concentration to double the TT [10]: less than 10^-7 mol/1; Ki [11]: 440 µM; Concentr. to double the Prothrombin time [12]: 0.90 µmol/L; concentration to double the PT [12]: ≤ 1 μmol/1; Ki [13]: 150 µM; Ki [14]: 15 µM; Ki [15]: > 1000 µM; Concentr. to double the aPTT [16]: 0.36 µmol/L; concentration to double the aPTT [16]: ≤ 1 μmol/1; Ki [17]: 0.044 µM
